Data: paper PMC12310023 (PLOS Neglected Tropical Diseases, 2025)
Like-named read-outs stand apart in the source and are kept apart here.

Assays:
[1] = system: C. parvum Bunch Grass Farms isolate; assay: Calibr high-content imaging Cryptosporidium panel; format: cell-based, Cryptosporidium parvum; conditions: Cryptosporidium parvum
C. hominis TU502 isolate = assay: Calibr high-content imaging Cryptosporidium panel; format: cell-based, Cryptosporidium hominis; conditions: Cryptosporidium hominis
[2] = HCT-8 host cell count (Calibr); conditions: human
NLuc C. parvum (Calibr) = assay: Calibr panel, UA Nanoluc C. parvum count; format: cell-based; conditions: Cryptosporidium parvum; for EC50: read-out: UA Nanoluc C. parvum Count EC50; for EC90: read-out: UA Nanoluc C. parvum Count EC90
[3] = system: C. parvum U AZ Laboratory isolate; assay: microbe, parasite or virus in culture; format: cell-based, Cryptosporidium parvum; conditions: Cryptosporidium parvum; for EC50: Calibr Crypto Panel 2, 2018-06-18, read-out: Sterling Lab C. parvum Spot Count EC50; for EC90: Calibr Crypto Panel 2, read-out: Sterling Lab C. parvum Spot Count EC90
72H HEK293T Cytotoxicity = format: cell-based; conditions: human, HEK293T cells
[4] = system: C. parvum Zambriski Laboratory isolate; assay: Calibr high-content imaging Cryptosporidium panel; format: cell-based, Cryptosporidium parvum; conditions: Cryptosporidium parvum; for EC50: read-out: Wild C. parvum Spot Count EC50; for EC90: read-out: Wild C. parvum Spot Count EC90
5-HT2B = target: T1, 5-HT2B (Homo sapiens, UniProt P41595); assay: Cerep cellular and nuclear receptor functional assay; format: cell-based; conditions: read-out: IC50, antagonist effect
T1 construct: Cerep (Eurofins, France)

PPARУ = target: T2, PPARУ (Homo sapiens, UniProt P37231); assay: as above; format: cell-based; conditions: read-out: IC50, antagonist effect
T2 construct: Cerep (Eurofins, France)
T2 sequence (P37231 1-505): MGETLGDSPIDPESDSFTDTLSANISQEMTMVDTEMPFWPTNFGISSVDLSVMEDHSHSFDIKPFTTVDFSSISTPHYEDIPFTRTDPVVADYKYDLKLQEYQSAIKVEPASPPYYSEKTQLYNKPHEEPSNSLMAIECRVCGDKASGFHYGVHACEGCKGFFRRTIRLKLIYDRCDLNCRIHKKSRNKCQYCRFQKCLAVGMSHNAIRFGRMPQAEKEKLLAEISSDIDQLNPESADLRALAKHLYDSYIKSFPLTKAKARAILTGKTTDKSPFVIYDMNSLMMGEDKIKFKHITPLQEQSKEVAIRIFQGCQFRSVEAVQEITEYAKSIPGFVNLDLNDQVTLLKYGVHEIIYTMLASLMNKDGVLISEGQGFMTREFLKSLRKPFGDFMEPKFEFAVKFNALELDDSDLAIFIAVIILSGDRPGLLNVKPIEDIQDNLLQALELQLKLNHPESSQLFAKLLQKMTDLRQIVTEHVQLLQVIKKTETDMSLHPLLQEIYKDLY

[5] = Crypto Panel 3 Replicate 1, read-out: Bunch Grass Farm C. parvum Count EC50
[6] = Crypto Panel 3 Replicate 2, read-out: Bunch Grass Farm C. parvum Count EC50
[7] = Replicate 1, read-out: Bunch Grass Farm C. parvum Count EC90
[8] = Replicate 2, read-out: Bunch Grass Farm C. parvum Count EC90
[9] = Replicate 1, read-out: TU502 C. hominis Count EC50
[10] = Replicate 1, read-out: TU502 C. hominis Count EC90
[11] = Replicate 2, read-out: TU502 C. hominis Count EC50
[12] = Replicate 2, read-out: TU502 C. hominis Count EC90
[13] = CC50, HCT-8 cells infected with BGF Cp, Replicate 1
[14] = CC50, HCT-8 cells infected with BGF Cp, Replicate 2
[15] = CC50, HCT-8 cells infected with Ch, Replicate 1
[16] = CC50, HCT-8 cells infected with Ch, Replicate 2
[17] = CC50, HCT-8 cells infected with UA Nluc Cp, Replicate 1
[18] = CC50, HCT-8 cells infected with UA Nluc Cp, Replicate 2
[19] = HCT-8 Cell Count CC50, host cells infected with Sterling oocysts
[20] = read-out: Bunch Grass Farm C. parvum Count EC50, Crypto Panel 3 Replicate 1
[21] = read-out: Bunch Grass Farm C. parvum Count EC50, Crypto Panel 3 Replicate 2
[22] = read-out: Bunch Grass Farm C. parvum Count EC90, Replicate 1
[23] = read-out: Bunch Grass Farm C. parvum Count EC90, Replicate 2
[24] = read-out: Bunch Grass Farm C. parvum Spot Count EC50, Calibr Crypto Panel 2
[25] = read-out: Bunch Grass Farm C. parvum Spot Count EC90, Calibr Crypto Panel 2
[26] = read-out: C. hominis Spot Count EC50, Calibr Crypto Panel 2, 2018-07-02
[27] = read-out: C. hominis Spot Count EC90, Calibr Crypto Panel 2
[28] = read-out: TU502 C. hominis Count EC50, Replicate 1
[29] = read-out: TU502 C. hominis Count EC50, Replicate 2
[30] = read-out: TU502 C. hominis Count EC90, Replicate 1
[31] = read-out: TU502 C. hominis Count EC90, Replicate 2

T1 sequence (P41595 whole entry): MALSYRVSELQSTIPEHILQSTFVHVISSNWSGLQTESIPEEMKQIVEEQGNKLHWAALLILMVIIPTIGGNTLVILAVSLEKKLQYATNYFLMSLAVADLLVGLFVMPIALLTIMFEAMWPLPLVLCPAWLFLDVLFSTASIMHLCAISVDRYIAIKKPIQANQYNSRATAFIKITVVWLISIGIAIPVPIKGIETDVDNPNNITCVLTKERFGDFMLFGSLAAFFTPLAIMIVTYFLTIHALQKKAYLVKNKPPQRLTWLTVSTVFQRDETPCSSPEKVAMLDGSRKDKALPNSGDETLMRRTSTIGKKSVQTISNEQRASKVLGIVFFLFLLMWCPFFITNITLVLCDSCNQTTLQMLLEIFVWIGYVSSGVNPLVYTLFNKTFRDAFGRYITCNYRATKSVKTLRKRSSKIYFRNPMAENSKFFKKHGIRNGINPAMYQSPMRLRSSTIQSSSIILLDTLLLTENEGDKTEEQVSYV

SMILES	EC50 [1, 5]	EC50 [1, 6]	EC90 [1, 7]	EC90 [1, 8]	EC50 (C. hominis TU502 isolate; [9])	EC90 (C. hominis TU502 isolate; [10])	CC50 [2, 13]	CC50 [2, 14]	CC50 [2, 15]	CC50 [2, 16]	CC50 [2, 17]	CC50 [2, 18]	EC50 (NLuc C. parvum (Calibr); Replicate 1)	EC90 (NLuc C. parvum (Calibr); Replicate 1)	EC50 (NLuc C. parvum (Calibr); Replicate 2)	EC90 (NLuc C. parvum (Calibr); Replicate 2)	EC50 [3]	EC90 [3]	CC50 [2, 19]	CC50 at 72 h (72H HEK293T Cytotoxicity)	further results
CC(C)/N=c1\cc2n(-c3ccc(Cl)cc3)c3ccccc3nc-2cc1Nc1ccc(Cl)cc1 [Clofazimine]	119 nM	678 nM	2710 nM	1170 nM	517 nM	1190 nM	> 25000 nM	> 25000 nM	> 25000 nM	> 25000 nM	> 25000 nM	> 25000 nM	23.6 nM	392 nM	67 nM	1370 nM	–	–	–	–	EC50 (C. hominis TU502 isolate; [11]): 707 nM; EC90 (C. hominis TU502 isolate; [12]): 1520 nM
CC(=O)Oc1ccccc1C(=O)Nc1ncc([N+](=O)[O-])s1 [Nitazoxanide]	11300 nM	6050 nM	19600 nM	12000 nM	8220 nM	14200 nM	> 30000 nM	> 30000 nM	> 30000 nM	> 30000 nM	> 30000 nM	> 30000 nM	> 30000 nM	> 30000 nM	4760 nM	25000 nM	3940 nM	20800 nM	19900 nM	40300 nM	EC50 ([1]; Calibr Crypto Panel 2, read-out: Bunch Grass Farm C. parvum Spot Count EC50): 6990 nM; EC90 ([1]; Calibr Crypto Panel 2, read-out: Bunch Grass Farm C. parvum Spot Count EC90): 16800 nM; EC50 (C. hominis TU502 isolate; Calibr Crypto Panel 2, 2018-07-02, read-out: C. hominis Spot Count EC50): 5820 nM; EC90 (C. hominis TU502 isolate; Calibr Crypto Panel 2, read-out: C. hominis Spot Count EC90): 278000 nM; EC50 (C. hominis TU502 isolate; [11]): 6030 nM; EC90 (C. hominis TU502 isolate; [12]): 12300 nM; EC50 ([4]; Calibr Crypto Panel 2): 9040 nM; EC90 ([4]; Calibr Crypto Panel 2): 15700 nM
COc1ccc(C[C@H](N)C(=O)N[C@H]2[C@@H](O)[C@H](n3cnc4c(N(C)C)ncnc43)O[C@@H]2CO)cc1 [Puromycin]	–	–	–	–	–	–	3090 nM	2810 nM	2660 nM	2810 nM	2970 nM	2370 nM	337 nM	1020 nM	233 nM	1320 nM	165 nM	406 nM	3100 nM	319 nM	EC50 [1, 20]: 403 nM; EC50 [1, 21]: 274 nM; EC90 [1, 22]: 1140 nM; EC90 [1, 23]: 847 nM; EC50 [1, 24]: 177 nM; EC90 [1, 25]: 398 nM; EC50 (C. hominis TU502 isolate; [26]): 1840 nM; EC90 (C. hominis TU502 isolate; [27]): 3570 nM; EC50 (C. hominis TU502 isolate; [28]): 730 nM; EC50 (C. hominis TU502 isolate; [29]): 504 nM; EC90 (C. hominis TU502 isolate; [30]): 1900 nM; EC90 (C. hominis TU502 isolate; [31]): 1500 nM; EC50 [4]: 274 nM; EC90 [4]: 1920 nM
Cn1ccc2cc3c(cc21)CCN3C(=O)Nc1cccnc1 [SB 206553, reference compound]	–	–	–	–	–	–	–	–	–	–	–	–	–	–	–	–	–	–	–	–	IC50 (5-HT2B): 21 nM
O=C(Nc1ccccc1)c1cc([N+](=O)[O-])ccc1Cl [GW 9662, reference compound]	–	–	–	–	–	–	–	–	–	–	–	–	–	–	–	–	–	–	–	–	IC50 (PPARУ): 34 nM
O=c1[nH]c(=O)n([C@H]2C[C@H](O)[C@@H](CO)O2)cc1F [5-fluoro-2'-deoxyuridine]	–	–	–	–	–	–	192 nM	80.3 nM	71.8 nM	9.05 nM	196 nM	43 nM	43.1 nM	158 nM	33.1 nM	117 nM	3.67 nM	9.97 nM	79 nM	7.23 nM	EC50 [1, 20]: 39.7 nM; EC50 [1, 21]: 29 nM; EC90 [1, 22]: 68.8 nM; EC90 [1, 23]: 86 nM; EC50 [1, 24]: 3.1 nM; EC90 [1, 25]: 11.7 nM; EC50 (C. hominis TU502 isolate; [26]): 33.5 nM; EC90 (C. hominis TU502 isolate; [27]): 679 nM; EC50 (C. hominis TU502 isolate; [28]): 51.1 nM; EC50 (C. hominis TU502 isolate; [29]): 29.2 nM; EC90 (C. hominis TU502 isolate; [30]): 196 nM; EC90 (C. hominis TU502 isolate; [31]): 222 nM; EC50 [4]: 5.29 nM; EC90 [4]: 80.4 nM
